Values of other authors in patent publication US20060127486A1, “Ceramic structures for prevention of drug diversion” (priority 2004, published 2006).

set-up: reference not given here; conditions: equianalgesic doses of various opioids, given as an aid to exact dose determination

Point of comparison: `CCC(=O)C(CC(C)N(C)C)(c1ccccc1)c1ccccc1` (stereo not shown) [methadone], equianalgesic dose 9.0 mg. Against it:
- COc1ccc2c3c1O[C@H]1[C@@H](O)C=C[C@H]4[C@@H](C2)N(C)CC[C@@]341 [codeine] — higher, 90.0 mg
- COc1ccc2c3c1O[C@H]1C(=O)CC[C@H]4[C@@H](C2)N(C)CC[C@]314 [hydrocodone] — higher, 15.0 mg
- CN1CC[C@]23CCCC[C@H]2[C@H]1Cc1ccc(O)cc13 [levorphanol] — lower, 1.8 mg
- COc1ccc2c3c1O[C@H]1C(=O)CC[C@@]4(O)[C@@H](C2)N(C)CC[C@]314 [oxycodone] — higher, 13.5 mg

same assay, conditions: in vivo

Point of comparison: `CN1CC[C@]23c4c5ccc(O)c4O[C@H]2[C@@H](O)C=C[C@H]3[C@H]1C5` [morphine], equianalgesic dose 27.0 mg. Against it:
- CCOC(=O)C1(c2ccccc2)CCN(C)CC1 [meperidine] — higher, 135.0 mg
